# From patent US7696313B2, “Prodrug compounds with isoleucine” (priority 2000, dated 2010)
# Like-named read-outs stand apart in the source and are kept apart here.
# How the values were obtained:
# [1] = Metabolism and clearance in normal mice (plasma and urine, LC MS/MS); assay type: in vivo
# Procedure: The metabolism and clearance of Suc-Ile-Ala-Leu-Dox was studied in normal mice. The mice were administered Suc-Ile-Ala-Leu-Dox at a single intravenous bolus dose of 117 mg/kg. Plasma samples were obtained at 1 and 4 hours. Plasma samples of 100 μl were transferred to Eppendorf tubes (1.5 mL) and an internal standard of daunorubicin (20 μL at 0.5 mg/ml) was added together with acetonitrile (400 μl). The tubes were capped and briefly vortexed followed by centrifugation at 14,000 rpm. 420 μl from each tube was removed and dried in vacuo. Each sample was reconstituted in 65 μl ammonium formate containing acetonitrile (20%) prior to analysis by reverse phase liquid chromatography in combination with tandem mass spectrometry (LC MS/MS).
# Urine was collected at 2 and 24 hours post administration from pairs of mice in metabolic cages. Urine samples were diluted with ammonium formate containing acetonitrile (20%) to give a target analyte concentration within the practical range of the LC MS/MS assay. 30 μl of each diluted sample was placed in an Eppendorf tube (1.5 ml) and an internal standard of daunorubicin (20 μL at 0.5 mg/ml) was added together with 50 μl of ammonium formate containing acetonitrile (20%). Each sample was then analyzed by LC MS/MS.
# An Agilent HP 1100. HPLC with DAD detector and Chemstation software was coupled to a PE Sciex API 365 mass spectrometer with an electrospray ion source.
# HPLC was performed on a TSK-Gel Super ODS, […], 4.6×50 mm (TosoHaas) reversed phase column equipped with a […] C18 guard disc (Higgins Analytical) and stainless steel frit (Upchurch Scientific). Chromatography was performed at room temperature. The flow rate was 0.5 ml/min. Injection volume was 50 μl. Gradient elution was performed using a mobile phase of 20 mM ammonium formate with increasing amounts of acetonitrile. The API 365 was operated at 365° C. in a multiple reaction monitoring mode, set to monitor specific analyte parent-daughter ion pairs. Integration of chromatograms was performed by MacQuan software (PE Sciex) and quantitation of each analyte obtained by comparison to previously obtained calibration curves. Daunorubicin was used as an internal standard in all cases.
# Percent of administered dose—plasma volume estimated at 40% of blood volume, which was calculated at 7% of animal's body weight.
# Plasma samples were obtained at 1 and 4 hours from separate mice. Urine was collected at 2 and 24 hours post administration from pairs of mice in metabolic cages. The plasma and urine samples were prepared and analyzed as described in Example 4.
# [2] = Repeat-dose tolerance (RD-MTD) in tumor bearing mice; assay type: in vivo; details: mouse, in vivo, corrected results
# Procedure: In repeat-dose studies in tumor bearing mice, groups of ten mice were dosed with various amounts of prodrug for a total of five doses at either five day or 1 week intervals.
# [3] = Initial single dose Maximum Tolerated Dose (MTD) study, 28 days; assay type: in vivo, mice; details: mouse, in vivo, intravenous
# Procedure: In our initial single dose Maximum Tolerated Dose (MTD) study, groups of five normal mice were administered intravenous bolus doses of Suc-Ile-Ala-Leu-Dox. The mice were observed daily for 28 days and body weights measured twice weekly.
# The mice were observed daily for 28 days and body weights measured twice weekly.
# In the single dose Maximum Tolerated Dose (MTD) studies, groups of normal mice were administered intravenous bolus doses of the prodrug. The mice were observed daily for 28 days and body weights measured twice weekly. The MTD was estimated to be equal to the highest dose that produced no death in mice after 28 days.
# [4] = tested on: carcinoma cell trouase (MCF 7/6 cell homogenate, MCF 7/6 conditioned media, HeLa cell extract anion exchange fraction pool); experiment: Cleavage assay with carcinoma cell enzyme (trouase) preparations; assay type: biochemical, human; details: under appropriate assay conditions
# Procedure: A good candidate for a prodrug with improved therapeutic index is activated by cancer cells but relatively stable in whole human blood. Three different preparations of carcinoma cell trouase were used to screen various test compounds. These three preparations were as follows:
# (a) MCF 7/6 (breast carcinoma) cell homogenate
# (b) MCF 7/6 (breast carcinoma) conditioned media, and
# (c) HeLa (cervical carcinoma) cell extract anion exchange fraction pool.
# MCF 7/6 cells were grown to confluence in a serum free medium containing DMEM:F12 (1:1), 50 mg/L bovine serum albumin, ITS-X (10 mg/L insulin, 5.5 mg/L transferrin, 6.7 μg/L Na selenite, 2 mg/L ethanolamine), and Lipid Concentrate (Gibco #21900-030)100 mL of cells were harvested by centrifugation at 4° C. 10,000×g, for 20 min and decanting the supernatant. The pellet was resuspended in 2 mL phosphate buffered saline (Gibco) and centrifuged at 18,000×g for 10 min. […]
# A portion of the ultracentrifugation supernatant was diluted 2-fold with a 20 mM triethanolamine-HCl pH 7.2 buffer containing 0.01% (w/v) Triton X-100 and 0.02% (w/v) sodium azide (equilibration buffer). […] Its transformation into Ala-Leu-Dox was quantified by reverse phase high performance liquid chromatography utilizing fluorescence detection of the anthracycline moiety. […]
# [5] = Metabolism and clearance in normal mice (plasma and urine, LC MS/MS); assay type: in vivo; remark: listed apart in the source
# [6] = after Suc-βAla-Ile-Ala-Leu-Dox 117 mg/kg single intravenous bolus
# [7] = after Suc-Ile-Ala-Leu-Dox 117 mg/kg single intravenous bolus
smiles,measurement,setting,value
COc1cccc2c1C(=O)c1c(O)c3c(c(O)c1C2=O)C[C@@](O)(C(=O)CO)C[C@@H]3O[C@H]1C[C@H](NC(=O)[C@H](CC(C)C)NC(=O)[C@H](C)N)[C@H](O)[C@H](C)O1 [Ala-Leu-Dox],"Plasma 1 hr, percent of administered dose","[1]; mouse, in vivo",0.00 % of administered dose
same,"Plasma 4 hr, percent of administered dose","[1]; mouse, in vivo",0.00 % of administered dose
same,"Urine 24 hr, percent of administered dose","[1]; mouse, in vivo",0.00 % of administered dose
"COc1cccc2c1C(=O)c1c(O)c3c(c(O)c1C2=O)C[C@@](O)(C(=O)CO)C[C@@H]3O[C@H]1C[C@H](NC(=O)[C@H](CC(C)C)NC(=O)[C@H](C)NC(=O)[C@H](CC(C)C)NC(=O)CCNC(=O)CCC(=O)O)[C@H](O)[C@H](C)O1 [Suc-βAla-Leu-Ala-Leu-Dox, reference compound]","Major Plasma Metabolite, Table 7",mice,Ala-Leu-Dox
same,"Major Plasma Metabolite, Table 8",mice,Ala-Leu-Dox
"COc1cccc2c1C(=O)c1c(O)c3c(c(O)c1C2=O)C[C@@](O)(C(=O)CO)C[C@@H]3O[C@H]1C[C@H](NC(=O)[C@H](CC(C)C)NC(=O)[C@H](C)NC(=O)[C@H](CC(C)C)NC(=O)CCC(=O)O)[C@H](O)[C@H](C)O1 [Suc-Leu-Ala-Leu-Dox, reference compound]",MTD at 60 days,"[2]; Repeat Dose MTD, doxorubicin equivalent dose, Table 8, value in parentheses",31 mg/kg
same,MTD at 60 days,"[2]; Q 5D × 5 or Q 7D × 5, read-out: Repeat Dose MTD (mg/kg), Table 8",52 mg/kg
same,"Major Plasma Metabolite, Table 7","mouse, in vivo",Leu-Dox
same,"Major Plasma Metabolite, Table 8","mouse, in vivo",Leu-Dox
same,MTD at 28 days,"[3]; 28 days, uncorrected doses, read-out: SD MTD (mg/kg), Table 7",> 117 mg/kg
same,MTD at 28 days,"[3]; SD MTD, doxorubicin equivalent dose, Table 8, value in parentheses, corrected results",35 mg/kg
same,MTD at 28 days,"[3]; SD MTD, molar equivalent dose of doxorubicin, Table 7, value in parentheses, uncorrected",> 70 mg/kg
same,MTD at 28 days,"[3]; corrected results, read-out: SD MTD (mg/kg), Table 8",59 mg/kg
CC[C@H](C)[C@H](NC(=O)CCNC(=O)CCC(=O)O)C(=O)N[C@@H](C)C(=O)N[C@@H](CC(C)C)C(=O)N[C@H]1C[C@H](O[C@H]2C[C@](O)(C(C)=O)Cc3c(O)c4c(c(O)c32)C(=O)c2c(OC)cccc2C4=O)O[C@@H](C)[C@H]1O [succinyl-βAla-Ile-Ala-Leu-Daunorubicin],cleavage activity of trouase,[4],at least twenty-fold less active
"COc1cccc2c1C(=O)c1c(O)c3c(c(O)c1C2=O)C[C@@](O)(C(C)=O)C[C@@H]3O[C@H]1C[C@H](NC(=O)[C@H](CC(C)C)NC(=O)[C@H](C)NC(=O)[C@H](CC(C)C)NC(=O)CCNC(=O)CCC(=O)O)[C@H](O)[C@H](C)O1 [succinyl-βAla-Leu-Ala-Leu-Daunorubicin, reference compound]",cleavage activity of trouase,[4],readily cleaves
COc1cccc2c1C(=O)c1c(O)c3c(c(O)c1C2=O)C[C@@](O)(C(=O)CO)C[C@@H]3O[C@H]1C[C@H](NC(=O)[C@@H](N)CC(C)C)[C@H](O)[C@H](C)O1 [Leu-Dox],"Plasma 1 hr, percent of administered dose",[5]; [6],0.04 % of administered dose
same,"Plasma 4 hr, percent of administered dose",[5]; [6],0.00 % of administered dose
same,"Urine 2 hr, percent of administered dose","[5]; after Suc-βAla-Ile-Ala-Leu-Dox 117 mg/kg, collected 0-2 hours",4.69 % of administered dose
same,"Urine 24 hr, percent of administered dose","[5]; after Suc-βAla-Ile-Ala-Leu-Dox 117 mg/kg, collected 2-24 hours",2.29 % of administered dose
same,"Plasma 1 hr, percent of administered dose",[1]; [7],0.02 % of administered dose
same,"Plasma 4 hr, percent of administered dose",[1]; [7],0.00 % of administered dose
same,"Urine 2 hr, percent of administered dose","[1]; after Suc-Ile-Ala-Leu-Dox 117 mg/kg, collected 0-2 hours",1.17 % of administered dose
same,"Urine 24 hr, percent of administered dose","[1]; after Suc-Ile-Ala-Leu-Dox 117 mg/kg, collected 2-24 hours",2.25 % of administered dose
